18 compounds from patent US6844344B2, “Benzofuran derivatives” (Eli Lilly and Company, priority 1999, dated 2005) can be followed below.

SMILES strings stand for the structures. Counter-ions that a name gives are not always drawn.

Broadly, the melting point is the temperature of the solid-liquid transition.

For `COc1cccc2sc(C3CCN(C[C@H](O)COc4cccc5oc(C)cc45)C(C)(C)C3)cc12` (single isomer, unassigned; isomer 1) (as salt: hydrochloride) [Example 34], the melting point was 101.1 °C (dec.).
With `COc1ccc2cc([C@H]3CCN(C[C@H](O)COc4cccc5occc45)[C@@H](C)C3)sc2c1.O=C(O)C(=O)O` [Example 3, (2S)-(+)-1-(Benzofuran-4-yl)oxy-3-[(2S.4S)-4-(6-methoxybenzo[b]thiophen-2-yl)-2-methylpiperidinyl]-2-propanol Oxalate] the figure was 97 to 102 °C.
In turn, `COc1ccc2cc([C@@H]3CCN(C[C@H](O)COc4cccc5occc45)[C@@H](C)C3)sc2c1.O=C(O)C(=O)O` [Example 4, (2S)-1-(Benzofuran-4-yl)oxy-3-[(2S,4R)-4-(6-methoxybenzo[b]thiophen-2-yl)-2-methylpiperidinyl]-2-propanol Oxalate] gave a melting point of 130 to 133 °C.
The result for `COc1cccc2sc(C3CCN(C[C@H](O)COc4cccc5c4OC(C)(C)C5)[C@@H](C)C3)cc12.O=C(O)C(=O)O` (stereo in doubt) [Example 8, (2S)-(+)-1-(2,3-Dihydro-2,2-dimethylbenzofuran-7-yl)oxy-3-[(2S, 4R)-4-(4-methoxybenzo[b]thiophen-2-yl)-2-methylpiperidinyl]-2-propanol Oxalate] reads 145 to 148 °C; that for `COc1ccc2cc([C@@H]3CCN(C[C@H](O)COc4cccc5occc45)[C@H](C)C3)sc2c1.O=C(O)C(=O)O` [Example 2, (2S)-(−)-1-(Benzofuran-4-yl)oxy-3-[(2R,4R)-4-(6-methoxybenzo[b]thiophen-2-yl)-2-methylpiperidinyl]-2-propanol Oxalate], 97 to 102 °C (dec.).
For `COc1cccc2sc([C@H]3CCN(C[C@H](O)COc4cccc5c4OC(C)(C)C5)[C@H](C)C3)cc12.O=C(O)C(=O)O` [Example 10, (2S)-1-(2,3-Dihydro-2,2-dimethylbenzofuran-7-yl)oxy-3-[(2R,4S)-4-(4-methoxybenzo[b]thiophen-2-yl)-2-methylpiperidinyl]-2-propanol Oxalate], the melting point was in the range of 93 to 96 °C.
As to `COc1cccc2sc([C@@H]3CCN(C[C@H](O)COc4cccc5c4OC(C)(C)C5)[C@H](C)C3)cc12.O=C(O)C(=O)O` [Example 7, (2S)-(−)-1-(2,3-Dihydro-2,2-dimethylbenzofuran-7-yl)oxy-3-[(2R,4R)-4-(4-methoxybenzo[b]thiophen-2-yl)-2-methylpiperidinyl]-2-propanol Oxalate], the melting point lay within 88 to 93 °C.
`COc1cccc2sc([C@H]3CCN(C[C@H](O)COc4cccc5oc(C)cc45)[C@@H](C)C3)cc12` (as salt: oxalate) [Example 27, (2S)-(+)-3-[(2S,4S)-4-(4-Methoxybenzo[b]thiophen-2-yl)-2-methylpiperidin-1-yl]-1-(2-methylbenzofuran-4-yl)oxy-2-propanol]: the melting point is 98 °C (dec.).
With `Cc1cc2c(OC[C@@H](O)CN3CC[C@@H](c4cc5cc(Cl)ccc5s4)C[C@@H]3C)cccc2o1` (as salt: salt) [Example 32, (2S)-3-[(2S,4R)-4-(5-Chlorobenzo[b]thiophen-2-yl)-2-methylpiperidin-1-yl]-1-(2-methylbenzofuran-4-yl)oxy-2-propanol] the figure was 78.5 °C (dec.); with `COc1cccc2sc([C@@H]3CCN(C[C@H](O)COc4cccc5oc(C)cc45)[C@H](C)C3)cc12` (as salt: oxalate) [Example 26, (2S)-(−)-3-[(2R,4R)-4-(4-Methoxybenzo[b]thiophen-2-yl)-2-methylpiperidin-1-yl]-1-(2-methylbenzofuran-4-yl)oxy-2-propanol], 101.2 to 109.5 °C.
Regarding `Cc1cc2c(OC[C@@H](O)CN3CC[C@@H](c4cc5cc(Cl)ccc5s4)C[C@H]3C)cccc2o1` (as salt: salt) [Example 30, (2S)-(−)-3-[(2R,4R)-4-(5-Chlorobenzo[b]thiophen-2-yl)-2-methylpiperidin-1-yl]-1-(2-methylbenzofuran-4-yl)oxy-2-propanol], the melting point was 88.5 °C (dec.).
The result for `O=C(O)C(=O)O.O[C@H](COc1cccc2occc12)CN1CCC(c2cc3ccc(F)cc3s2)CC1` [Example 6, (2S)-(+)-1-(Benzofuran-4-yl)oxy-3-[4-(6-fluorobenzo[b]thiophen-2-yl)piperidinyl]-2-propanol Oxalate] reads 196 to 198 °C (dec.); that for `COc1cccc2sc(C3CCN(C[C@H](O)COc4cccc5oc(C)cc45)C(C)(C)C3)cc12` (single isomer, unassigned; isomer 2) (as salt: hydrochloride) [Example 35], 83.5 °C (dec.); that for `COc1cccc2sc([C@@H]3CCN(C[C@H](O)COc4cccc5c4OC(C)(C)C5)[C@@H](C)C3)cc12.O=C(O)C(=O)O` [Example 9, (2S)-1-(2,3-Dihydro-2,2-dimethylbenzofuran-7-yl)oxy-3-[(2S,4R)-4-(4-methoxybenzo[b]thiophen-2-yl)-2-methylylpiperidinyl]-2-propanol Oxalate], 83 to 86 °C.
With `COc1cccc2sc([C@@H]3CCN(C[C@H](O)COc4cccc5oc(C)cc45)[C@@H](C)C3)cc12` (as salt: oxalate) [Example 28, (2S)-(−)-3-[(2S,4R)-4-(4-Methoxybenzo[b]thiophen-2-yl)-2-methylpiperidin-1-yl]-1-(2-methylbenzofuran-4-yl)oxy-2-propanol] the figure was 99.2 to 103 °C; with `COc1cccc2sc([C@H]3CCN(C[C@H](O)COc4cccc5oc(C)cc45)[C@H](C)C3)cc12` (as salt: oxalate) [Example 29, (2S)-(+)-3-[(2R,4S)-4-(4-Methoxybenzo[b]thiophen-2-yl)-2-methylpiperidin-1-yl]-1-(2-methylbenzofuran-4-yl)oxy-2-propanol], 92.5 °C (dec.); with `Cc1cc2c(OC[C@@H](O)CN3CC[C@H](c4cc5cc(Cl)ccc5s4)C[C@H]3C)cccc2o1` (as salt: salt) [Example 33, (2S)-(−)-3-[(2R,4S)-4-(5-Chloro-benzo[b]thiophen-2-yl)-2-methylpiperidin-1-yl]-1-(2-methylbenzofuran-4-yl)oxy-2-propanol], 81.4 °C (dec.).
The result for `Cc1cc2c(OC[C@@H](O)CN3CC[C@H](c4cc5cc(Cl)ccc5s4)C[C@@H]3C)cccc2o1` (as salt: salt) [Example 31, (2S)-3-[(2S,4S)-4-(5-Chlorobenzo[b]thiophen-2-yl)-2-methylpiperidin-1-yl]-1-(2-methylbenzofuran-4-yl)oxy-2-propanol] reads 204.1 to 208.3 °C.
